Source: patent publication US20240239801A1, “PYRIMIDO[5,4,D]PYRIMIDINE COMPOUNDS, COMPOSITIONS COMPRISING THEM AND USES THEREOF” (Université de Montréal, priority 2021, published 2024)

Assays:
[1] = target: CRAF (Homo sapiens, UniProt P04049); assay: CRAF kinase activity assay (ADP-Glo); format: biochemical; conditions: Table 3
Procedure: (§1) Compound preparation: solid samples of each substances in 1dram vials were suspended in DMSO (Fisher Scientific) at a stock concentration of 20 mM. Stocks were kept at −20° C. and protected from light. If solubility of the compound at 20 mM appeared to be an issue, the initial concentration of the DMSO stock was changed to 10 mM or 5 mM.
(§2) In vitro enzymatic reactions were used for evaluating compounds intrinsic activity against BRAF, CRAF and ARAF. For BRAF and CRAF, 0.375 nM of purified GST-tagged kinases (cat #B4062-10UG and cat #R1656-10UG respectively from Millipore Sigma) were incubated with 75 nM of kinase-dead MEK1 substrate (cat #40075; BPS Bioscience) in the presence of 10 μM of Ultrapure ATP (cat #V9102; Promega; part V915A) with and without the test compound in a buffer containing 50 mM HEPES pH 7.5, 10 mM MgCl2, 1 mM EDTA, 0.01% Brij-35 and 2 mM DTT. Separate reactions were performed with the MEK1 substrate and ATP as a blank control. ARAF, kinase reactions were rigorously the same with the exception that kinase concentration was raised to 3.75 nM (cat #1768-0000-1; Reaction Biology).
(§3) For compound treatment, 5 μL/well of test substance solution are placed in a 384-well proxyplate (Perkin Elmer) and mixed with 2× concentrated kinase reactions. The dilution series is selected so that nine concentrations cover a range from 100 nM to 0.01 nM. […] The final concentration of DMSO in the assay is set at 0.05%.
(§4) BRAF and CRAF kinase reactions were carried out for a total of 2 hours at 30° C. and then stopped by ½ dilution in ADP-Glo Reagent (cat #V9102; Promega; part V912C). Reactions were then incubated for 1 h at room temperature before addition of one volume of Kinase Detection Reagent (cat #V9102; Promega; part V917A). Plates were then equilibrated at room temperature for 30 minutes before detection of luminescence on a Synergy Neo2 plate reader (Biotek). The effect of each compound dilution on BRAF and CRAF kinase activity was expressed as % inhibition and calculated as follows. First, the internal 100% inhibition control (average of luminescence in kinase reactions comprising kinase dead MEK1 substrate alone) was subtracted from each data point. The average of DMSO (vehicle) controls (set as 0% inhibition) was established and used to calculate % inhibition:
(§5) IC50 values were obtained by plotting the kinase inhibition values and fitting the dose-activity curves using a log(agonist) versus response−variable slope (four parameters) function using either GraphPadPrism (V7.0) or Dotmatics Screening Ultra platform. Standards included in the ARAF kinase assay were Belvarafenib (MedChem Express cat #HY-109080; CAS #1446113-23-0), LXH254 (MedChem Express cat #HY-112089; CAS #1800398-38-2) and BGB283 (cat #HY-18957; CAS #1446090-79-4).

[2] = target: T1, BRAF (Homo sapiens, UniProt P15056); assay: BRAF kinase activity assay (ADP-Glo); format: biochemical; conditions: Table 3
T1 construct: GST; purchased Millipore Sigma B4062-10UG
T1 sequence (P15056 whole entry): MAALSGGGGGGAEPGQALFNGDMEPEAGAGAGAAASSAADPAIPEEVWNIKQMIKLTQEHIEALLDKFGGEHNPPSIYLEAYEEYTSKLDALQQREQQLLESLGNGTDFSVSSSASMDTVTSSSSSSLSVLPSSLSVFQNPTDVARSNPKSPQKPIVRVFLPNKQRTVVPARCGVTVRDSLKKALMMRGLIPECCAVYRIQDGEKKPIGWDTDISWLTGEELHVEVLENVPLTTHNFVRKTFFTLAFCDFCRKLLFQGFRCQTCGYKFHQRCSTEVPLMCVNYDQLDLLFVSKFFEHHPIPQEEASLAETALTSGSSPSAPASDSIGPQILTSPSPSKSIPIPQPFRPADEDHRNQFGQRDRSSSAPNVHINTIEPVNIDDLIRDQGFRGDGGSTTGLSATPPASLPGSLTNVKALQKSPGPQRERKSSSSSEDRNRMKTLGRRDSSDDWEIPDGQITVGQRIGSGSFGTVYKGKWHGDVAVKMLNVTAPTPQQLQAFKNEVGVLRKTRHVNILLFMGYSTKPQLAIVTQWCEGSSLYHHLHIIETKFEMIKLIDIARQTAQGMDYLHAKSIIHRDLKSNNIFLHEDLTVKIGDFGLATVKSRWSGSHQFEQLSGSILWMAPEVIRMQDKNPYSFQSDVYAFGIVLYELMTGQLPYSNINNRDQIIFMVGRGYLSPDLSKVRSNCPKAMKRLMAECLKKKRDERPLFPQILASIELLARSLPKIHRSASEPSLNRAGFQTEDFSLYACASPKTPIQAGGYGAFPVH
Procedure: as §1, §2, §3, §4, §5

[3] = system: HCT116 pERK; assay: Phospho-ERK inhibition, AlphaLISA SureFire Ultra p-ERK 1/2; format: cell-based, human; conditions: Table 3; for IC50: 1 h treatment; for HCT116 (Ymin %): lowest value of the pERK IC50 curve
How it was run: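 Cells plated in RPMI-1640 with 5% FBS, held overnight, then exposed 1 h to ten-point compound dilutions (top 30 or 10 μM down to 0.33 nM; 0.5% DMSO). Lysates read for p-ERK1/2 (Thr202/Tyr204) by AlphaLISA; % inhibition relative to DMSO after subtracting a 1 μM trametinib background; IC50 from four-parameter fit.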

Chain of CRAF (P04049 whole entry): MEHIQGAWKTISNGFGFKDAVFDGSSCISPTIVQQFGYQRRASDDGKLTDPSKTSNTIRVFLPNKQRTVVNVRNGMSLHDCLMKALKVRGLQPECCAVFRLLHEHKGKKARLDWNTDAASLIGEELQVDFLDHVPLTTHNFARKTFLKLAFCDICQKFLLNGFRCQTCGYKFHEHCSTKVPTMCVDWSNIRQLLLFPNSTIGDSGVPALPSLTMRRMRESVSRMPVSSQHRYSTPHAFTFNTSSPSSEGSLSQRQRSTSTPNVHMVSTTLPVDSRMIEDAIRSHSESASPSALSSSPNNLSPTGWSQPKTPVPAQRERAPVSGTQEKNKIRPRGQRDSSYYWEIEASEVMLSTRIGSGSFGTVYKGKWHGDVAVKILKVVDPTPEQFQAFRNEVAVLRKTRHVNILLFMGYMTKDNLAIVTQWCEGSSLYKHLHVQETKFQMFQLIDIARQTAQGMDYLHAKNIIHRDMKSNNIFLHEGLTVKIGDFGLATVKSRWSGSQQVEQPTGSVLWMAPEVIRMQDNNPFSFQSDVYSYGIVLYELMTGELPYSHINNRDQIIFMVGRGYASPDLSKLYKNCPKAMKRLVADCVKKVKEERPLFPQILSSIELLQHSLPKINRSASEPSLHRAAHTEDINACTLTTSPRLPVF

| SMILES | IC50 [1] [nM] | IC50 [2] [nM] | IC50 [3] [nM] | HCT116 (Ymin %) [3] [%] | IC50 ([3]; Homo sapiens, HCT-116) [nM] |
| --- | --- | --- | --- | --- | --- |
| COc1ccc(S(=O)(=O)Nc2ccc(F)c(Nc3ncnc4cnc(-n5cnc6ccccc65)nc34)c2F)c(C)c1Cl [Example 115] | 10 to 50 | 1 to 10 | < 500 | 2 | – |
| COc1ccc(S(=O)(=O)Nc2ccc(F)c(Nc3ncnc4cnc(-n5cnc6ccccc65)nc34)c2F)c(C)c1F [Example 116] | > 50 | 1 to 10 | < 500 | −1 | – |
| COc1ccc(S(=O)(=O)Nc2ccc(F)c(Nc3ncnc4cnc(-n5nnc6ccccc65)nc34)c2F)c(C)c1Cl [Example 117] | 10 to 50 | > 10 | 1000 to 10000 | −1 | – |
| COc1ccc(S(=O)(=O)Nc2ccc(F)c(Nc3ncnc4cnc(-n5nnc6ccccc65)nc34)c2F)c(C)c1F [Example 118] | 10 to 50 | > 10 | 1000 to 10000 | −14 | – |
| Cc1c(F)cccc1S(=O)(=O)Nc1ccc(F)c(Nc2ncnc3cnc(-n4nnc5ccccc54)nc23)c1F [Example 121] | < 10 | 1 to 10 | 1000 to 10000 | −4 | – |
| Cc1c(Cl)cccc1S(=O)(=O)Nc1ccc(F)c(Nc2ncnc3cnc(-n4nnc5ccccc54)nc23)c1F [Example 124] | < 10 | 1 to 10 | 1000 to 10000 | −9 | – |
| Cc1c(Cl)cccc1S(=O)(=O)Nc1ccc(F)c(Nc2ncnc3cnc(-n4cnc5ccccc54)nc23)c1F [Example 127] | < 10 | 1 to 10 | < 500 | 0 | – |
| CC1(O)CCN(c2cccc3c2ncn3-c2ncc3ncnc(Nc4c(F)ccc(NS(=O)(=O)c5cccc(Cl)c5Cl)c4F)c3n2)CC1 [Example 130] | < 10 | 1 to 10 | < 500 | −13 | – |
| COC1CCN(c2cccc3c2ncn3-c2ncc3ncnc(Nc4c(F)ccc(NS(=O)(=O)c5cccc(Cl)c5Cl)c4F)c3n2)CC1 [Example 131] | 10 to 50 | 1 to 10 | < 500 | −4 | – |
| N#CC1CCN(c2cccc3c2ncn3-c2ncc3ncnc(Nc4c(F)ccc(NS(=O)(=O)c5cccc(Cl)c5Cl)c4F)c3n2)CC1 [Example 132] | < 10 | 1 to 10 | < 500 | −4 | – |
| CCC1(O)CCN(c2cccc3c2ncn3-c2ncc3ncnc(Nc4c(F)ccc(NS(=O)(=O)c5cccc(Cl)c5Cl)c4F)c3n2)CC1 [Example 133] | < 10 | 1 to 10 | < 500 | −6 | – |
| CN(CCO)c1cccc2c1ncn2-c1ncc2ncnc(Nc3c(F)ccc(NS(=O)(=O)c4cccc(Cl)c4Cl)c3F)c2n1 [Example 134] | < 10 | 1 to 10 | < 500 | 8 | – |
| N#CC1(c2cccc3c2nnn3-c2ncc3ncnc(Nc4c(F)ccc(NS(=O)(=O)c5cccc(Cl)c5Cl)c4F)c3n2)CC1 [Example 135] | < 10 | 1 to 10 | – | – | 500 to 1000 |
| CCC1(O)CCN(c2cccc3c2nnn3-c2ncc3ncnc(Nc4c(F)ccc(NS(=O)(=O)c5cccc(Cl)c5Cl)c4F)c3n2)CC1 [Example 136] | < 10 | 1 to 10 | < 500 | 19 | – |
| COCCOc1cccc2c1nnn2-c1ncc2ncnc(Nc3c(F)ccc(NS(=O)(=O)c4cccc(Cl)c4Cl)c3F)c2n1 [Example 137] | < 10 | 1 to 10 | – | – | < 500 |
| O=S(=O)(Nc1ccc(F)c(Nc2ncnc3cnc(-n4nnc5c(N6CCC7(CCCO7)CC6)cccc54)nc23)c1F)c1cccc(Cl)c1Cl [Example 138] | 10 to 50 | > 10 | < 500 | 1 | – |

| SMILES | IC50 [1] [nM] | IC50 [2] [nM] | IC50 [3] [nM] | HCT116 (Ymin %) [3] [%] | IC50 ([3]; Homo sapiens, HCT-116) [nM] |
| --- | --- | --- | --- | --- | --- |
| O=S(=O)(Nc1ccc(F)c(Nc2ncnc3cnc(-n4nnc5c(N6CCN(CCO)CC6)cccc54)nc23)c1F)c1cccc(Cl)c1Cl [Example 139] | < 10 | < 1 | < 500 | 2 | – |
| O=S(=O)(Nc1ccc(F)c(Nc2ncnc3cnc(-n4cnc5c(N6CC(CF)C6)cccc54)nc23)c1F)c1cccc(Cl)c1Cl [Example 140] | 10 to 50 | > 10 | < 500 | −16 | – |
| CCS(=O)(=O)c1cn(-c2ncc3ncnc(Nc4c(F)ccc(NS(=O)(=O)c5cccc(Cl)c5Cl)c4F)c3n2)c2ccccc12 [Example 141] | 10 to 50 | 1 to 10 | < 500 | −3 | – |
| O=S(=O)(Nc1ccc(F)c(Nc2ncnc3cnc(-n4cc(S(=O)(=O)C5CCOCC5)c5ccccc54)nc23)c1F)c1cccc(Cl)c1Cl [Example 142] | < 10 | < 1 | < 500 | −15 | – |
| O=S(=O)(Cc1ccncc1)c1cn(-c2ncc3ncnc(Nc4c(F)ccc(NS(=O)(=O)c5cccc(Cl)c5Cl)c4F)c3n2)c2ccccc12 [Example 143] | 10 to 50 | 1 to 10 | < 500 | −7 | – |
| O=S(=O)(CC1CCOCC1)c1cn(-c2ncc3ncnc(Nc4c(F)ccc(NS(=O)(=O)c5cccc(Cl)c5Cl)c4F)c3n2)c2ccccc12 [Example 144] | 10 to 50 | 1 to 10 | < 500 | −9 | – |
| CN(C)C1CCN(c2cccc3c2ncn3-c2ncc3ncnc(Nc4c(F)ccc(NS(=O)(=O)c5cccc(Cl)c5Cl)c4F)c3n2)CC1 [Example 145] | < 10 | < 1 | < 500 | −8 | – |
| O=S(=O)(Nc1ccc(F)c(Nc2ncnc3cnc(-n4cnc5c(N6CCN(CCO)CC6)cccc54)nc23)c1F)c1cccc(Cl)c1Cl [Example 146] | < 10 | < 1 | < 500 | −9 | – |
| O=S(=O)(Nc1ccc(F)c(Nc2ncnc3cnc(-n4cnc5c(N6CC(CCO)C6)cccc54)nc23)c1F)c1cccc(Cl)c1Cl [Example 147] | 10 to 50 | 1 to 10 | < 500 | −9 | – |
| CCc1ccccc1S(=O)(=O)Nc1ccc(F)c(Nc2ncnc3cnc(-n4cnc5ccccc54)nc23)c1F [Example 148] | 10 to 50 | > 10 | 1000 to 10000 | −1 | – |
| CCc1ccccc1S(=O)(=O)Nc1ccc(F)c(Nc2ncnc3cnc(-n4cnc5c(N6CCC(O)(CC)CC6)cccc54)nc23)c1F [Example 149] | 10 to 50 | > 10 | < 500 | 4 | – |
| O=S(=O)(Nc1ccc(F)c(Nc2ncnc3cnc(-n4cnc5ccccc54)nc23)c1F)c1cccc2c1OC(F)(F)O2 [Example 150] | 10 to 50 | 1 to 10 | 1000 to 10000 | −8 | – |
| CCC1(O)CCN(c2cccc3c2ncn3-c2ncc3ncnc(Nc4c(F)ccc(NS(=O)(=O)c5cccc6c5OC(F)(F)O6)c4F)c3n2)CC1 [Example 151] | 10 to 50 | 1 to 10 | < 500 | 10 | – |
| Cc1cccc(S(=O)(=O)Nc2ccc(F)c(Nc3ncnc4cnc(-n5cnc6ccccc65)nc34)c2F)c1Cl [Example 152] | > 50 | 1 to 10 | 1000 to 10000 | −15 | – |
| CCC1(O)CCN(c2cccc3c2ncn3-c2ncc3ncnc(Nc4c(F)ccc(NS(=O)(=O)c5cccc(C)c5Cl)c4F)c3n2)CC1 [Example 153] | 10 to 50 | 1 to 10 | < 500 | −6 | – |
| Cc1c(S(=O)(=O)Nc2ccc(F)c(Nc3ncnc4cnc(-n5cnc6ccccc65)nc34)c2F)ccc(F)c1F [Example 154] | > 50 | 1 to 10 | 500 to 1000 | 3 | – |
